In series [1] the target is T1, human 20S proteasome.
T1 construct: isolated from human erythrocytes (Enzo Life Sciences); purchased Enzo Life Sciences; host or cells: human erythrocytes
Description: ChT-L peptidase activity of SDS-activated human 20S proteasome (SucLLVY-MCA). Format: biochemical. Here is the method:
Influence of the designed peptides on catalytic properties of the 20S proteasome was tested using the proteasome at a final concentration of 1.5 nM, isolated from human erythrocytes (Enzo Life Sciences) and activated with 0.01% sodium dodecyl sulfate. Succinyl-Leu-Leu-Val-Tyr-4-methylcoumarin-7-amide (SucLLVY-MCA) was employed as a model fluorogenic substrate to determine the activity of ChT-L peptidase. All assays were performed in the 96-well plate format using a reaction volume of 100 uL. Tests were carried out in 50 mM Tris/HCl, pH 8.0 containing 0.5 mM ethylenediamine tetraacetic acid. Stock solutions of the substrates and the tested peptides were prepared by dissolution of the lyophilized compounds in dimethyl sulfoxide (DMSO). The content of DMSO never exceeded 3% of the final reaction volume. Compounds were tested in the concentration range of 0.05–10 μM. The substrate was added at 100 μM final concentration (1% of the volume). The release of an aminomethyl coumarin (AMC) group was followed by measuring fluorescence emission at 460 nm in 2 min. intervals for up to 60 min. at 37°C (Fluoroskan Ascent). The peptidolytic activity was calculated as nanomoles of the released AMC product per mg of CP per second. The half maximal inhibitory concentration expressed in μM concentration was calculated with SigmaPlot 12.3 where exponential equation estimates based on fitting of two or three logistic parameters were employed.

For series [2], the target named is T1, human 20S proteasome. Nature of the series: Microscale thermophoresis with fluorescently labeled human 20S proteasome. Format: binding. Conditions: for EC50: MST Hill fit, concentrations listed in nM, read-out: EC50, fitted value (Hill method); for Kd: MST. From the text:
Microscale thermophoresis detects changes in the mobility of protein molecules in temperature gradients generated by IR laser radiation. The thermophoretic effect is very sensitive to induced by a ligand binding alterations in the charge, size and/or the hydration shell of a studied protein [39]. Quantification of these changes is based on either intrinsic fluorophores such as tryptophan or covalently bound dyes. Titration of the selected peptides/peptidomimetics to a constant concentration of the fluorescently labeled human 20S proteasome allowed us to determine ligand dissociation constants (Kd), and systematically compare their binding affinity.
The human 20S proteasome was labeled using monolith NT^TM Protein Labeling Kit RED-NHS (NanoTemper Technologies), according to the protocol provided by the supplier. During the measurements concentration of the labeled protein was kept constant at 3 nM. […] The binding reactions were carried out in 50 mM Tris/HCl buffer containing 0.5 mM EDTA, pH 8.0 with an addition of sodium dodecyl sulfate at the final concentration of 0.005%. Measurements were performed in standard treated capillaries on a Monolith NT.115 system (NanoTemper Technologies). Capillaries were illuminated at 25°C with 80% LED power for 5 s. […] Fluorescence intensities were measured at 6–8 s and 34–36 s, and fluorescence intensity ratios of hot/cold were used as the assay readout. Kd values were determined using the internal evaluation software.

Series [3] concerns T1, human 20S proteasome. Description: Peptide degradation test with 20S proteasome (RP-HPLC). Format: in vitro ADME. On the procedure: Susceptibility of the designed modulators to degradation by the 20S proteasome was examined by reversed-phase high-performance liquid chromatography (S10 Fig). The compounds were dissolved in water or DMSO to 10 mM concentration and then diluted with 25 mM Tris buffer containing 0.25 mM EDTA (pH 8.0) to the final concentration of 1 mM. 2.5 μg of human 20S proteasome (Enzo Life Sciences) was added to the mixture, which then, after adjustment of its final volume to 100 μl, was incubated at 37°C for 3 h. The reaction was stopped by adding 5 μl of 10% aqueous trifluoroacetic acid. Next, 40 μl of the mixture, along with the control not containing the 20S, were injected onto C8 Kromasil column (4,6 x 250 mm, 100 Å, 5 μm). […]
incubation with the proteasome under standard conditions used in our tests. For comparison we also included the degradation profile of Tat1_A4-5,8-9, which was not able to inhibit the proteasome […]
(1 picture or pasted object on this page, not shown here)

In series [4] the target is 20S proteasome. As to conditions: cited from earlier work. An excerpt: Intriguingly, we first identified the importance of structural dynamics of this peptide, when we compared the FTIR spectra collected in liquid and films. […] The best studied and shortest 11-residue PR11 may contain a structural turn and is hypothesized to bind at the outer edge of the proteasomal α ring. Another example is octa-arginine, inhibiting the proteasome peptidase activity in vitro with high- ...

Where [5] appears, read: ChT-L activity, average of repetitions, read-out: Calculated IC50, Average.
Where [6] appears, read: ChT-L peptidase, 1.5 nM 20S from human erythrocytes activated with 0.01% SDS, 100 μM SucLLVY-MCA, 50 mM Tris/HCl pH 8.0, 0.5 mM EDTA, 37°C, mean (±SD), read-out: IC50.
The mark [7] stands for this setting: average of three repetitions, read-out: Kd, Average.
Setting [8] is: ChT-L activity, Repetition 1, read-out: Calculated IC50.

Where two headings read alike, the source gives them in different places. Square brackets hold non-standard residues; d marks the D form. Ends that are not written are not given here. Peptide text beside a SMILES is read from it. Oic = O=C(O)[C@@H]1C[C@@H]2CCCC[C@@H]2N1; dOic = O=C(O)[C@H]1C[C@H]2CCCC[C@H]2N1; Tic = O=C(O)[C@@H]1Cc2ccccc2CN1; dTic = O=C(O)[C@H]1Cc2ccccc2CN1

As for GRKKAAQRRRPS [Tat1_A5-6], the IC50 (usually the concentration that inhibits the measured activity by half) in series [1] (setting [5]) is 321 nM; in series [1] (setting [6]), 320 nM.
Turning to GRKAAAQRRRPS [Tat1_A4-6], the IC50 in series [1] (setting [5]) and in series [1] (setting [6]) was 1720 nM each time. Also, the concentration giving a half-maximal response (EC50) (commonly the concentration at which the effect is half-maximal) in series [2] (Repetition 1) turned out to be 12800 ± 0.155 nM; in series [2] (Repetition 2), 10600 ± 0.0436 nM; in series [2] (Repetition 3), 12000 ± 0.084 nM. Also, the Kd (as a rule, the equilibrium constant for the complex coming apart) in series [2] (Repetition2, read-out: Kd) was determined as 10600 nM; in series [2] (setting [7]) it was 12100 nM.
Take GRKAARQRRRPS [Tat1_A4-5]: the IC50 in series [1] (setting [5]) is 264 nM; in series [1] (setting [6]), 260 nM.
GRKKRRAAARPS [Tat1_A7-9]: the IC50 was 281 nM in series [1] (setting [5]) and 280 nM in series [1] (setting [6]).
In the case of `N=C(N)NCCC[C@H](NC(=O)CN)C(=O)N[C@@H](CCCCN)C(=O)N1Cc2ccccc2C[C@@H]1C(=O)N1[C@H](C(=O)N[C@@H](CCCNC(=N)N)C(=O)N[C@@H](CCC(N)=O)C(=O)N2Cc3ccccc3C[C@H]2C(=O)N2[C@@H](C(=O)N[C@@H](CCCNC(=N)N)C(=O)N3CCC[C@H]3C(=O)N[C@@H](CO)C(=O)O)C[C@H]3CCCC[C@H]32)C[C@@H]2CCCC[C@@H]21` [Tat1_4-5TO,8-9TOD] (H-GRK[dTic][Oic]RQ[Tic][dOic]RPS-OH), the half-maximal inhibitory concentration (IC50) in series [1] (setting [5]) is 245 nM; in series [1] (setting [6]), 240 nM. Moreover, in series [2] (read-out: Dissociation constants Kd calculated on the basis of the thermophoresis curves, 3 nM labeled 20S, 50 mM Tris/HCl, 0.5 mM EDTA pH 8.0, 0.005% SDS, 25°C, mean (±SD)), the Kd is 8380 nM.
With GRKAARQAARPS [Tat1_A4-5,8–9], the half-inhibitory concentration (IC50) is 4890 nM in series [1] (setting [8]); 3470 nM in series [1] (ChT-L activity, Repetition 2, read-out: Calculated IC50); 4430 nM in series [1] (ChT-L activity, Repetition 3, read-out: Calculated IC50); 4660 nM in series [1] (setting [6]). In addition, the “Degradation by the 20S proteasome” value in series [3] (pH 8) is on record as “partially degraded by the proteasome”.
For GRKKRRQAAAPS [Tat1_A8-10], the IC50 is 1990 nM in series [1] (setting [8]), 2520 nM in series [1] (setting [5]) and 2520 nM in series [1] (setting [6]). Besides, the concentration for a half-maximal effect (EC50) was 13800 ± 0.227 nM in series [2] (Repetition 1), 12800 ± 0.251 nM in series [2] (Repetition 2) and 13800 ± 0.218 nM in series [2] (Repetition 3). Besides, the Kd in series [2] (setting [7]) came out at 13500 nM.
For the compound `N=C(N)NCCC[C@H](NC(=O)CN)C(=O)N[C@@H](CCCCN)C(=O)N[C@@H](CCCCN)C(=O)N[C@@H](CCCNC(=N)N)C(=O)N[C@@H](CCCNC(=N)N)C(=O)N[C@@H](CCC(N)=O)C(=O)N1Cc2ccccc2C[C@@H]1C(=O)N1[C@H](C(=O)N[C@@H](CCCNC(=N)N)C(=O)N2CCC[C@H]2C(=O)N[C@@H](CO)C(=O)O)C[C@@H]2CCCC[C@@H]21` [Tat1_8-9TO], the IC50 in series [1] (setting [5]) and in series [1] (setting [6]) was 170 nM in each case. In addition, the EC50 was determined as 8880 ± 0.0559 nM in series [2] (Repetition 1), 10800 ± 0.0559 nM in series [2] (Repetition 2) and 11500 ± 0.0559 nM in series [2] (Repetition 3). For the same compound, the equilibrium dissociation constant (Kd) in series [2] (setting [7]) is 10400 nM.
With GRAAARQRRRPS [Tat1_A3-5], the half-inhibitory concentration (IC50) in series [1] (setting [5]) and in series [1] (setting [6]) was 1570 nM in each case.
As to `N=C(N)NCCC[C@H](NC(=O)CN)C(=O)N[C@@H](CCCCN)C(=O)N[C@@H](CCCCN)C(=O)N[C@@H](CCCNC(=N)N)C(=O)N[C@@H](CCCNC(=N)N)C(=O)N[C@@H](CCC(N)=O)C(=O)N[C@@H](CCCNC(=N)N)C(=O)N[C@@H](CCCNC(=N)N)C(=O)N[C@@H](CCCNC(=N)N)C(=O)N1CCC[C@H]1C(=O)N[C@@H](CO)C(=O)O` [Tat1], the “Degradation by the 20S proteasome” value in series [3] (1 mM peptide, 2.5 μg human 20S proteasome in 100 μl, 25 mM Tris, 0.25 mM EDTA pH 8.0, 37°C, 3 h, RP-HPLC C8, UV 223 nm, against control without 20S) was “No significant degradation”.
With GRAARRQRRRPS [Tat1_A3-4], the IC50 was 245 nM in series [1] (setting [5]) and 240 nM in series [1] (setting [6]).
For GRAAAAQRRRPS [Tat1_A3-6], in that order: 4240 nM and 4240 nM.
As to `N=C(N)NCCC[C@H](NC(=O)CN)C(=O)N[C@@H](CCCCN)C(=O)N[C@@H](CCCCN)C(=O)N[C@@H](CCCNC(=N)N)C(=O)N[C@@H](CCCNC(=N)N)C(=O)N[C@@H](CCC(N)=O)C(=O)N1Cc2ccccc2C[C@H]1C(=O)N1[C@@H](C(=O)N[C@@H](CCCNC(=N)N)C(=O)N2CCC[C@H]2C(=O)N[C@@H](CO)C(=O)O)C[C@H]2CCCC[C@H]21` [Tat1_8-9TOD], in series [1] (ChT-L activity), the “IC50 lower than for counterpart with d-Tic,l-Oic unit (Tat1_8-9TO)” value is given as “about 30%”. For the same compound, the IC50 in series [1] (setting [5]) is 122 nM; in series [1] (setting [6]) it was 120 nM. Moreover, the figures for the EC50 in series [2] (Repetition 1), in series [2] (Repetition 2) and in series [2] (Repetition 3) were 8320 ± 0.0423 nM, 7550 ± 0.0388 nM and 8560 ± 0.0538 nM, respectively. The Kd in series [2] (setting [7]) amounted to 8140 nM.
For the compound GRKKAAARRRPS [Tat1_A5-7], the IC50 in series [1] (setting [5]) was 315 nM; in series [1] (setting [6]), 310 nM.
Consider GRKKARAAARPS [Tat1_A5,7–9], for which the IC50 in series [1] (setting [5]) and in series [1] (setting [6]) was 1530 nM each time.
GAAARRQRRRPS [Tat1_A2-4]: the “Increase of IC50 relative to Tat1” value in series [1] (ChT-L activity of SDS activated 20S proteasome) is “about two times higher”. Also, the IC50 in series [1] (setting [6]) worked out at 450 nM.
With GRKKRRAAAAPS [Tat1_A7-10], the IC50 in series [1] (setting [5]) and in series [1] (setting [6]) was 2790 nM throughout.
Turning to `N=C(N)NCCC[C@H](NC(=O)CN)C(=O)N[C@@H](CCCCN)C(=O)N1Cc2ccccc2C[C@@H]1C(=O)N1[C@H](C(=O)N[C@@H](CCCNC(=N)N)C(=O)N[C@@H](CCC(N)=O)C(=O)N[C@@H](CCCNC(=N)N)C(=O)N[C@@H](CCCNC(=N)N)C(=O)N[C@@H](CCCNC(=N)N)C(=O)N2CCC[C@H]2C(=O)N[C@@H](CO)C(=O)O)C[C@@H]2CCCC[C@@H]21` [Tat1_4-5TO] (HELM PEPTIDE1{G.R.K.[O=C([C@H]1Cc2ccccc2CN1[*:1])[*:2]].[O=C([C@@H]1C[C@@H]2CCCC[C@@H]2N1[*:1])[*:2]].R.Q.R.R.R.P.S}$$$$V2.0), the figures for the IC50 in series [1] (setting [5]) and in series [1] (setting [6]) were 239 nM and 240 nM, respectively. Besides, the EC50 amounted to 8730 ± 0.0212 nM in series [2] (Repetition 1), 9260 ± 0.0182 nM in series [2] (Repetition 2) and 8730 ± 0.0265 nM in series [2] (Repetition 3). Moreover, the Kd in series [2] (setting [7]) was 8910 nM.
As for octa-arginine, the “IC50, proteasome peptidase activity in vitro” value in series [4] is “high-nanomolar”.
Regarding GRKKRAAARRPS [Tat1_A6-8], the IC50 is 342 nM in series [1] (setting [5]) and 340 nM in series [1] (setting [6]).

The values above are taken from paper PMC4648528, “Interplay between Structure and Charge as a Key to Allosteric Modulation of Human 20S Proteasome by the Basic Fragment of HIV-1 Tat Protein” (PLoS ONE, 2015).
